Broadly, the IC50 is the concentration at which inhibition is half-maximal. One may read the inhibition as the drop in the measured response relative to a control, in per cent.

The values that follow come from US20040229241A1, “Cloned mammalian polyamine oxidase” (priority 2001, published 2004).

For data set [1], the system named is PAOh1/SMO. In words: PAOh1/SMO activity and mRNA in small-cell lung cancer lines NCI H82 and NCI H889 after BENSpm. It is filed as cell-based, human. The following applies: two small-cell lung cancer lines, 10 μM, 24 h. Here is the method: Cell Culture and Analysis of Growth Inhibition of Human Lung Cancer Cell Lines The non-small-cell cancer lines NCI A549 (adenocarcinoma), NCI H157 (squamous), NCI H727 (carcinoid), NCI H125 (adenocarcinoma) and U1752 (squamous), and the small-cell lung carcinoma lines NCI H82 and NCI H889 were cultured as we have previously described. Cells were treated for the times and with the concentrations of specific agents as indicated in the Results. For cell growth analysis in the presence of the PAOh1/SMO inhibitor MDL 72,527, the MTS dye reduction assay CellTiter 96 system from Promega was used according to the supplier's protocol. […]
Total cellular RNA was extracted from the lung cancer cell lines using Trizol reagent (Invitrogen) according to the manufacturer's protocol. […] Intracellular polyamine concentrations were determined using the precolumn dansylation labeling, reverse-phase high-pressure liquid chromatography method as described by Kabra et al. using 1,7-diaminoheptane as an internal standard. Polyamine concentrations are reported as nanomoles per milligram protein for each sample, where lysate protein content was measured by the method of Bradford. SSAT activity of cellular extracts was measured as previously described. […]

The target in data set [2] is T1, purified recombinant human PAOh1/SMO (Homo sapiens, UniProt Q9NWM0).
T1 construct: A 1702 bp fragment of the PAOh1cDNA was produced by PCR; His tag (pET15b) (N); made in house; host or cells: Escherichia coli BL21(DE3)
As to the kind of experiment: Oxidase activity of purified recombinant PAOh1/SMO, luminol chemiluminescence. It is filed as biochemical. Here is the method: Expression and Purification of PAOh1/SMO. The pET15b/PAOh1/SMO plasmid was used to transform the BL21(DE3) strain of Escherichia coli (Novagen) and transformed cells were selected on LB agar with 50 μg/ml ampicillin. The expression of PAOh1/SMO protein was induced in LB medium by the addition of 1 mM IPTG for 3 h at 37 ° C. Cell lysates were prepared under denaturing conditions with 8M urea and PAOh1/SMO protein was purified from the lysate by Ni-NTA resin according to the manufacturer's protocol (Qiagen, Valencia, Calif.). The resulting denatured protein was renatured in buffers containing decreasing concentrations of urea (5M urea, 4 h; 2.5M urea, 4 h; 1M urea, 12 h; and 0M urea, 12 h) and 50 mM Tris-HCl, pH 7.5, 250 mM NaCl, 0.1 mM EDTA, 1 mM DTT, and 0.2 μM flavin adenine dinucleotide (FAD).
Determination of PAO enzyme activity. PAO activity of the purified PAOh1/SMO was assayed using a modi.cation of the chemiluminesence analysis reported by Fernandez et al. and Rogers, et al.. Briefly, luminol-dependent chemiluminescence was determined using a Monolight 3010 luminometer with two reagent injectors. Luminol was prepared as a 100 mM stock solution in DMSO and diluted to 100 μM with H2O, immediately prior to use. Purified PAOh1/SMO was assayed in a 100 mM glycine buffer, pH 8.0, 5 ηmol luminol, 20 μg horseradish peroxidase, and the polyamine substrate as indicated. All reagents with the exception of the polyamine substrate were combined and incubated for 2 min at 37 ° C., then the tube was transferred to the luminometer, substrate was added, and the resulting chemiluminescence was integrated over 20 s. The integral values are calibrated against standards containing known concentrations of H2O2 and the activities are expressed as pmols H2O2/mg protein/min. Where indicated, inhibitors were added at the specified concentrations prior to the addition of substrate. Km and Vmax values for the purified enzyme with the indicated substrate were estimated using Lineweaver-Burk transformation of the Michaelis-Menten kinetic equation.

Data set [3] has as its system NCI A549 cells. As to the kind of experiment: MTS cell growth analysis of NCI A549 cells with or without MDL 72,527. Type of data set: cell-based, human. How it is done:
(§1) Cell Culture and Analysis of Growth Inhibition of Human Lung Cancer Cell Lines The non-small-cell cancer lines NCI A549 (adenocarcinoma), NCI H157 (squamous), NCI H727 (carcinoid), NCI H125 (adenocarcinoma) and U1752 (squamous), and the small-cell lung carcinoma lines NCI H82 and NCI H889 were cultured as we have previously described. Cells were treated for the times and with the concentrations of specific agents as indicated in the Results. For cell growth analysis in the presence of the PAOh1/SMO inhibitor MDL 72,527, the MTS dye reduction assay CellTiter 96 system from Promega was used according to the supplier's protocol. In these experiments, NCI A549 cells were seeded at 5×10^3 cells/well in a 96-well microtiter plate and treated for 96 h with 10 μM of the indicated analogue in the presence or absence of 250 μM MDL 72,527.

For the next data set, the system named is PAO. In words: PAO activity in homogenates of NCI H157 cells after analogue treatment. Type of data set: cell-based, human. The following applies: 10 μM, 24 h. How it is done: Determination of PAO Enzyme Activity. The cultured H157 cells with or without treatment of 10 μM N^1, N″-bis(ethyl)norspermine (BENSpm) were homogenized with a Dounce tissue homogenizer in ice-cold 0.083 M sodium borate buffer (pH 9.0). The PAO activity in homogenates was assayed by the method of Suzuki et al. […] The enzyme activity was stopped by the addition of 2.0 ml of 0.1 M NaOH solution. The fluorescence intensity was measured with excitation at 323 nm and emission at 426 nm. […] Protein content of the cellular homogenate was determined using the Bio-Rad protein assay kit (Bio-Rad). […] For determination of PAO activity in the product of the unlabeled TnT reaction, 10 μl of TnT reaction were used in the place of the homogenate. The PAO activity in the TnT reactions was represented by the fluorescent compound formed within the 1-h incubation. […] The concentrations chosen for each inhibitor were based on studies published previously (12).

The next data set concerns PAO message. In words: Northern blot of PAO mRNA in NCI H157 cells after analogue treatment. Type of data set: cell-based, human. The following applies: 10 μM, 24 h. How it is done: RNA Purification and Northern Blot Assay. Total cellular RNA from the NCI H157 cell line was extracted using Trizol total RNA reagent according to the protocol from the manufacturer. Total RNA (20 μg) was separated on a denaturing 1.5% agarose gel containing 6% formaldehyde, transferred to Zetaprobe membrane (Bio-Rad), and hybridized with a random primer-labeled pPAOh1 cDNA as the probe. Blots were washed and reprobed with an 18S ribosomal cDNA probe as a loading control.

Data set [4] deals with PAOh1/SMO. As to the kind of experiment: PAOh1/SMO activity in lysates of NCI A549 cells after analogue treatment. Type of data set: cell-based, human. How it is done: as §1
(§2) Total cellular RNA was extracted from the lung cancer cell lines using Trizol reagent (Invitrogen) according to the manufacturer's protocol. For Northern blotting, total RNA (20 lg) was separated on a denaturing 1.5% agarose gel containing 6% formaldehyde and transferred to Zetaprobe membrane (Bio-Rad). Random primer- labeled PAOh1 cDNA was used as probe to estimate PAOh1/SMO expression. Blots were stripped and reprobed with an 18S ribosomal cDNA to provide a loading control. Analysis of polyamine content, SSAT and PAOh1/SMO activity. Intracellular polyamine concentrations were determined using the precolumn dansylation labeling, reverse-phase high-pressure liquid chromatography method as described by Kabra et al. using 1,7-diaminoheptane as an internal standard. Polyamine concentrations are reported as nanomoles per milligram protein for each sample, where lysate protein content was measured by the method of Bradford. SSAT activity of cellular extracts was measured as previously described. […] The PAOh1/SMO assays were performed in the presence of 1.0 mM pargyline and 0.1 mM semicarbizide as inhibitors of monoamine oxidase (MAO) and diamine oxidase (DAO), respectively.

Data set [5] has as its system NCI A549 cells. As to the kind of experiment: Intracellular polyamine and analogue content of NCI A549 cells (HPLC). It is filed as cell-based, human. The following applies: NCI A549, 10 μM, 24 h.
Description: as §2

The test system of a further data set is SSAT. As to the kind of experiment: SSAT activity of NCI A549 cellular extracts. The following applies: NCI A549, 10 μM, 24 h; untreated 5 ± 0.1. Type of data set: cell-based, human.
Description: as §2

Another data set deals with T2, human PAOh1 (Homo sapiens, UniProt Q9NWM0).
T2 construct: made in house; host or cells: TnT-coupled wheat germ extract (Promega), template pPAOh1 (pcDNA3.1)
In words: PAO activity of in vitro TnT (wheat germ) produced PAOh1, fluorescent H2O2 assay. It is filed as biochemical. The following applies: 0.25 mM inhibitor, 250 μM spermine as substrate. How it is done:
In Vitro Transcription and Translation. In vitro transcription and translation reactions were performed with the TnT-coupled wheat germ extract system. Parallel reactions were prepared by adding an unlabeled amino acid mixture to one reaction and a [^35S]methionine containing amino acid mixture to the other, according to the supplied protocol. Vector pcDNA3.1 and pPAOh1 were linearized by SalI restriction and served as the templates. The labeled translation reactions products were separated by 10% SDS-PAGE, and radioactivity on the labeled PAO band was determined by Phosphor image analysis using Image Quant software (Molecular Dynamics, Sunnyvale, Calif.).
Determination of PAO Enzyme Activity. The cultured H157 cells with or without treatment of 10 μM N^1, N″-bis(ethyl)norspermine (BENSpm) were homogenized with a Dounce tissue homogenizer in ice-cold 0.083 M sodium borate buffer (pH 9.0). […] The enzyme activity was stopped by the addition of 2.0 ml of 0.1 M NaOH solution. The fluorescence intensity was measured with excitation at 323 nm and emission at 426 nm. […] Protein content of the cellular homogenate was determined using the Bio-Rad protein assay kit (Bio-Rad). […] For determination of PAO activity in the product of the unlabeled TnT reaction, 10 μl of TnT reaction were used in the place of the homogenate. […]

T1 sequence (Q9NWM0 whole entry, the tested form may be a part): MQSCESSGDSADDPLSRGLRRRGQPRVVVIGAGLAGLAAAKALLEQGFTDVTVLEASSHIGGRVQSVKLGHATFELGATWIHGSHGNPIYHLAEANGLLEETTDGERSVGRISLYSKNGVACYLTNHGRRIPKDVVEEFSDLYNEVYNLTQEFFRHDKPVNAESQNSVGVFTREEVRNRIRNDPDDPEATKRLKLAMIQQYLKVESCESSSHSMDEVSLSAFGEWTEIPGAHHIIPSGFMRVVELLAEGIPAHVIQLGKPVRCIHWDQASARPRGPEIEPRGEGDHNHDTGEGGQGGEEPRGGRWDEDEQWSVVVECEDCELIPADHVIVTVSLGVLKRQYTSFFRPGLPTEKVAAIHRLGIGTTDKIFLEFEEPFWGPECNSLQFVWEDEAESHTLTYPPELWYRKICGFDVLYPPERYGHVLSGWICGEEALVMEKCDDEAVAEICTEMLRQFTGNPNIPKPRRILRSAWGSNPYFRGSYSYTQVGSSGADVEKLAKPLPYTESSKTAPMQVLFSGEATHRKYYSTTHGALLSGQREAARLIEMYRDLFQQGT
T2 sequence (Q9NWM0 whole entry): as the sequence (Q9NWM0 whole entry, the tested form may be a part) above

In the case of `CCNCCCNCCCNCCCNCC` [BENSpm, N^1,N^11-bis(ethyl)norspermine], in the data set with PAOh1/SMO [1], the “increase in PAOh1/SMO activity” value is recorded as “no observed increase” and the “increase in PAOh1/SMO mRNA” value was “no observed increase”. The “ability to serve as substrate (oxidation by purified PAOh1/SMO)” value in [2] (250 μM of compound) was “none of the analogues examined were found to be oxidized”. Besides, in the data set on NCI A549 cells [3] (NCI A549, 96 h, 10 μM analogue with 250 μM MDL 72,527), the “sensitivity of cell growth to analogue in the presence of the PAOh1/SMO inhibitor” value is recorded as “clear decrease in sensitivity”. Also, the “increase in PAO activity” value with PAO is on record as over 3 fold. Moreover, in the data set on PAO message, the “increase in PAO message” value was about 5 fold. Further, the “fold increase of PAOh1/SMO activity” value in the data set with PAOh1/SMO [4] (NCI A549, 10 μM, 12 h) is on record as “approximately threefold”. In addition, in the data set on PAOh1/SMO [4] (NCI A549, 10 μM, 24 h, 250 μM spermine as substrate), the “fold induction of PAOh1/SMO activity” value is given as “about fivefold”. For the same compound, the PAOh1/SMO activity in the data set with PAOh1/SMO [4] (NCI A549, 10 μM, 24 h, untreated 6,390 ± 2,070) is 16,100 ± 780 pmol H2O2/mg/h. For the same compound, the “induction of PAOh1/SMO activity” value in the data set with PAOh1/SMO [4] (NCI A549, 24 h exposure to 10 μM of each analogue) is “significant induction”. The “concentration of maximal induction of PAOh1/SMO” value with PAOh1/SMO [4] (NCI A549, increasing concentrations, 24 h) came out at 5 µM. Also, in the data set with NCI A549 cells [5] (untreated 2.1 ± 0.7), the “Polyamine: Putrescine” value is listed as under 0.05 nmol/mg protein. In the data set on NCI A549 cells [5] (untreated 9.9 ± 1.2), the “Polyamine: Spermine” value came to 1.2 ± 0.3 nmol/mg protein. Moreover, the “Polyamine: Spermidine” value in the data set on NCI A549 cells [5] (untreated 26.9 ± 1.2) is recorded as 1.2 ± 0.8 nmol/mg protein. Further, in the data set with SSAT, the SSAT activity is on record as 5590 ± 517.7 pmol N^1-acetylspermidine/mg p.

As for `C=C=CCNCCCCNCC=C=C` [MDL 72,527, N^1,N^4-bis(2,3-butadienyl)-1,4-butanediamine], the IC50 in data set [2] is about 10 µM. Further, the inhibition at 250 µM in [2] (read-out: inhibition of oxidation of spermine) is over 95%. Moreover, in the data set on NCI A549 cells [3] (NCI A549, 250 μM MDL 72,527), the “effect of the inhibitor alone on growth” value is given as “did not adversely affect the growth”. In the data set with PAOh1/SMO [4] (NCI A549 basal activity (4184 without inhibitor), 250 μM MDL 72,527), the “basal oxidase activity in the presence of inhibitor” value was 4055 pmol/mg per hour. In addition, the “effect on the basal levels of oxidase activity” value with PAOh1/SMO [4] (NCI A549 lysate, 250 μM MDL 72,527) was “did not significantly reduce”. For the same compound, the “inhibition of the PAOh1/SMO activity induced by the analogues” value in the data set on PAOh1/SMO [4] (NCI A549 lysate, 250 μM MDL 72,527 in the assay) was “significantly inhibited”. Besides, the “part of the basal level of oxidase activity that is inhibited” value in the data set on PAOh1/SMO [4] (basal (untreated) lung cancer cell lysate) is “less than 10%”. The “inhibition of the human PAOh1 protein product” value against human PAOh1 was “effective in inhibiting”.
